Patent US20190364896A1, “SYNERGISTIC WEED CONTROL FROM APPLICATIONS OF PYRIDINE CARBOXYLIC ACID HERBICIDES AND ALS INHIBITORS” (Dow AgroSciences LLC, priority 2014, published 2019)

Tests used:
Assay in all cases: Postemergence herbicidal activity, greenhouse trial (visual injury 0-100%)
Assay type in all cases: in vivo
[1] = tested on: wild buckwheat (Polygonum convolvulus, POLCO)
Description: (§1) Seeds of the desired test plant species were planted in Sun Gro MetroMix® 306 planting mixture, which typically has a pH of 6.0 to 6.8 and an organic matter content of about 30 percent, in plastic pots with a surface area of 103.2 square centimeters (cm^2). […] The plants were grown for 7-36 days (d) in a greenhouse with an approximate 14-hour (h) photoperiod which was maintained at about 23° C. during the day and 22° C. during the night. Nutrients and water were added on a regular basis and supplemental lighting was provided with overhead metal halide 1000-Watt lamps as necessary. The plants were employed for testing when they reached the second or third true leaf stage.
(§2) Weighed amounts of technical or formulated material (emulsifiable concentrate (EC) or soluble concentrate (SL)) were dissolved in a volume of 97:3 volume per volume (v/v) acetone/dimethyl sulfoxide (DMSO) to stock solutions. […] The concentrated stock solutions were diluted with an aqueous mixture of 1.5% v/v of Agri-dex crop oil concentrate to provide the appropriate application rates. Compound requirements are based upon a 12 milliliter (mL) application volume at a rate of 187 liters per hectare (L/ha). Spray solutions of the experimental compound mixtures were prepared by adding the stock solutions to the appropriate amount of dilution solution to form a 12 mL spray solution in two-way combinations. Formulated compounds were applied to the plant material with an overhead Mandel track sprayer equipped with 8002E nozzles calibrated to deliver 187 L/ha over an application area of 0.503 square meters (m^2) at a spray height of 18 inches (43 centimeters (cm)) above average plant canopy. Control plants were sprayed in the same manner with the solvent blank. Application rates for component (a) are in g ae/ha, and application rates for component (b) are in g ai/ha.
(§3) The treated plants and control plants were placed in a greenhouse as described above and watered by sub-irrigation to prevent wash-off of the test compounds. After 20-22 d, the condition of the test plants as compared with that of the control plants was determined visually and scored on a scale of 0 to 100 percent where 0 corresponds to no injury and 100 corresponds to complete kill. Colby's equation was used to determine the herbicidal effects expected from the mixtures. […]
(§4) Weighed amounts of technical material were dissolved in a volume of 97:3 volume per volume (v/v) acetone/dimethyl sulfoxide (DMSO) to stock solutions. […] The concentrated stock solutions were diluted with an aqueous mixture of 1.5% v/v of Agri-dex crop oil concentrate to provide the appropriate application rates. Compound requirements are based upon a 12 milliliter (mL) application volume at a rate of 187 liters per hectare (L/ha).

[2] = tested on: nutsedge (Cyperus esculentus, CYPES); conditions: Cyperus, post-emergence, read-out: % visual injury Obs; for pest or weed control: 4.375 g ai/ha
Description: as §1
as §2, with “technical” for “technical or formulated”, “material” for “material (emulsifiable concentrate (EC) or soluble concentrate (SL))”
as §3, §2

[3] = tested on: kochia (Kochia scoparia, KCHSC); conditions: for pest or weed control: 4.375 g ai/ha
Description: as §1, §2, §3, §4

[4] = tested on: thistle (Cirsium arvense, CIRAR); conditions: for pest or weed control: 4.375 g ai/ha
Description: as §1, §2, §3, §4

[5] = tested on: chickweed (Stellaria media, STEME); conditions: for pest or weed control: 4.375 g ai/ha
Description: as §1, §2
(§5) The treated plants and control plants were placed in a greenhouse as described above and watered by sub-irrigation to prevent wash-off of the test compounds. After 20-22 d, the condition of the test plants as compared with that of the control plants was determined visually and scored on a scale of 0 to 100 percent where 0 corresponds to no injury and 100 corresponds to complete kill. The condition of the test plants was compared with that of the control plants as determined visually and scored on a scale of 0 to 100 percent, where 0 corresponds to no injury and 100 corresponds to complete kill. Colby's equation was used to determine the herbicidal effects expected from the mixtures.
(§6) Compound 1 was formulated as an EC and was combined with florasulam, cloransulam, diclosulam, flumetsulam, penoxsulam, or pyroxsulam. Compound 2 was formulated as an EC and was combined with florasulam or pyroxsulam. The mixtures were applied to winter wheat (TRZAW), common rice (ORYSA), maize (ZEAMX), and the phytotoxicity of the herbicidal compositions was measured. In addition, the efficacy of the herbicidal compositions on blackgrass (Alopecurus myosuroides, ALOMY), pigweed (Amaranthus retrollexus, AMARE), wild oat (Avena fatua, AVEFA), common lambsquarters (Chenopodium album L., CHEAL), thistle (Cirsium arvense CIRAR), nutsedge (Cyperus esculentus, CYPES), barnyardgrass (Echinochloa crus-galli, ECHCG), poinsettia (Euphorbia heterophylla, EPHHL), ivyleaf morning-glory (Ipomoea hederacea, IPOHE), kochia (Kochia scoparia, KCHSC), wild buckwheat (Polygonum convolvulus, POLCO), grain sorghum (Sorghum vulgare, SORVU), chickweed (Stellaria media, STEME), wild pansy (Viola tricolor, VIOTR), was evaluated.
as §4, with “(L/ha). […]” for “(L/ha).”

[6] = tested on: barnyardgrass (Echinochloa crus-galli, ECHCG); conditions: Echinochloa crus-galli, post-emergence, read-out: % visual injury Obs
Description: as §1, §2, §5, §6
as §4, with “(L/ha). […]” for “(L/ha).”

[7] = tested on: ivyleaf morning-glory (Ipomoea hederacea, IPOHE)
Description: as §1, §2, §5, §6
as §4, with “(L/ha). […]” for “(L/ha).”

[8] = tested on: poinsettia (Euphorbia heterophylla, EPHHL); conditions: Euphorbia heterophylla, post-emergence; 4.375 g ai/ha; read-out: % visual injury Obs
Description: as §1
as §2, with “technical” for “technical or formulated”, “material” for “material (emulsifiable concentrate (EC) or soluble concentrate (SL))”
as §3, §2

[9] = tested on: pigweed (Amaranthus retroflexus, AMARE); conditions: for pest or weed control: 4.375 g ai/ha
Description: as §1, §2, §3, §4

[10] = tested on: common lambsquarters (Chenopodium album L., CHEAL); conditions: Chenopodium album, post-emergence, 4.375 g ai/ha; read-out: % visual injury Obs
Description: as §1, §2, §5, §6
as §4, with “(L/ha). […]” for “(L/ha).”

[11] = tested on: wild pansy (Viola tricolor, VIOTR); conditions: Viola tricolor, post-emergence, VIOTR, read-out: % visual injury Obs
Description: as §1, §2, §5
as §6, with “Compound 1 was formulated as an EC and was combined with florasulam, cloransulam, diclosulam, flumetsulam, penoxsulam, or pyroxsulam.” left out
as §4

[12] = Bassia scoparia, post-emergence, read-out: % visual injury Obs
[13] = Amaranthus retroflexus, post-emergence, read-out: % visual injury Obs
[14] = Cirsium arvense, post-emergence, read-out: % visual injury Obs
[15] = Stellaria media, post-emergence, read-out: % visual injury Obs

Work on COC(=O)c1ccc(I)cc1S(=O)(=O)[N-]C(=O)Nc1nc(C)nc(OC)n1.[Na+] yielded a pest or weed control at 2.5 g/ha ([1]; Fallopia convolvulus, post-emergence, POLCO, iodosulfuron 2.5 g ai/ha, read-out: % visual injury Obs) of 80%.

For COC(=O)c1csc(C)c1S(=O)(=O)NC(=O)n1nc(OC)n(C)c1=O, the pest or weed control at 5 g/ha ([2]; 5 g ai/ha) was 70%, the pest or weed control at 5 g/ha ([3]; Bassia scoparia, post-emergence, 5 g ai/ha, read-out: % visual injury Obs) was 10% and the pest or weed control at 5 g/ha ([4]; Cirsium arvense, post-emergence, 5 g ai/ha, read-out: % visual injury Obs) was 50%. It also gave a pest or weed control at 5 g/ha ([5]; Stellaria media, post-emergence, 5 g ai/ha, read-out: % visual injury Obs) of 95%.

For COC(=O)c1sccc1S(=O)(=O)NC(=O)Nc1nc(C)nc(OC)n1, the pest or weed control at 15 g/ha ([2]; CYPES, thifensulfuron 15 g ai/ha) was 0%, the pest or weed control at 15 g/ha ([4]; Cirsium arvense, post-emergence, CIRAR, thifensulfuron 15 g ai/ha, read-out: % visual injury Obs) was 10% and the pest or weed control at 15 g/ha ([6]; ECHCG, thifensulfuron 15 g ai/ha) was 10%. It also gave a pest or weed control at 15 g/ha ([7]; Ipomoea hederacea, post-emergence, IPOHE, thifensulfuron 15 g ai/ha, read-out: % visual injury Obs) of 85%.

For COC(=O)c1ccccc1S(=O)(=O)NC(=O)N(C)c1nc(C)nc(OC)n1, the pest or weed control at […] ([2]; CYPES, tribenuron 7.5 g ai/ha) was 0%, the pest or weed control at […] ([3]; Bassia scoparia, post-emergence, KCHSC, tribenuron 7.5 g ai/ha, read-out: % visual injury Obs) was 70% and the pest or weed control at […] ([1]; Fallopia convolvulus, post-emergence, POLCO, tribenuron 7.5 g ai/ha, read-out: % visual injury Obs) was 90%. The pest or weed control at […] ([7]; Ipomoea hederacea, post-emergence, IPOHE, tribenuron 7.5 g ai/ha, read-out: % visual injury Obs) was 65%.

For CCOc1nc(F)cc2nc(S(=O)(=O)Nc3c(Cl)cccc3C(=O)OC)nn12 [Cloransulam, cloransulam], the pest or weed control [2] was 50%, the pest or weed control [8] was 30% and the pest or weed control [3, 12] was 0%. For the same molecule, the pest or weed control [9, 13] was 0%, the pest or weed control [4, 14] was 99% and the pest or weed control ([1]; Fallopia convolvulus, post-emergence, 4.375 g ai/ha, read-out: % visual injury Obs) was 85%. The pest or weed control [5, 15] was 0% and the pest or weed control [10] was 0%.

Molecule CCOc1nc(F)cc2nc(S(=O)(=O)Nc3c(Cl)cccc3Cl)nn12 [Diclosulam, diclosulam] has a pest or weed control [2] of 50%, a pest or weed control [8] of 60% and a pest or weed control [3, 12] of 50%. The pest or weed control [9, 13] was 60%, the pest or weed control [4, 14] was 93% and the pest or weed control ([6]; 4.375 g ai/ha) was 30%. The pest or weed control [5, 15] was 0%, the pest or weed control [10] was 0% and the pest or weed control ([7]; Ipomoea hederacea, post-emergence, 4.375 g ai/ha, read-out: % visual injury Obs) was 93%.

CCOc1ccccc1OS(=O)(=O)NC(=O)Nc1nc(OC)cc(OC)n1 [Ethoxysulfuron, ethoxysulfuron] was tested, and the pest or weed control at 10 g/ha ([3]; Bassia scoparia, post-emergence, KCHSC, ethoxysulfuron 10 g ai/ha, read-out: % visual injury Obs) was 0%, the pest or weed control at 10 g/ha ([9]; Amaranthus retroflexus, post-emergence, AMARE, ethoxysulfuron 10 g ai/ha, read-out: % visual injury Obs) was 20% and the pest or weed control at 10 g/ha ([5]; Stellaria media, post-emergence, STEME, ethoxysulfuron 10 g ai/ha, read-out: % visual injury Obs) was 10%. The pest or weed control at 10 g/ha ([11]; ethoxysulfuron 10 g ai/ha) was 40%.

CCS(=O)(=O)c1nc2ccccn2c1S(=O)(=O)NC(=O)Nc1nc(OC)cc(OC)n1 [Sulfosulfuron, sulfosulfuron] gave a pest or weed control at 8.75 g/ha ([2]; CYPES, sulfosulfuron 8.75 g ai/ha) of 80%, a pest or weed control at 8.75 g/ha ([4]; Cirsium arvense, post-emergence, CIRAR, sulfosulfuron 8.75 g ai/ha, read-out: % visual injury Obs) of 85% and a pest or weed control at 8.75 g/ha ([1]; Fallopia convolvulus, post-emergence, POLCO, sulfosulfuron 8.75 g ai/ha, read-out: % visual injury Obs) of 80%. It also gave a pest or weed control at 8.75 g/ha ([11]; sulfosulfuron 8.75 g ai/ha) of 80%.

In the case of halosulfuron, the “% visual injury Obs” value ([3]; KCHSC, halosulfuron 17.5 g ai/ha) is reported as 0%, the “% visual injury Obs” value ([9]; AMARE, halosulfuron 17.5 g ai/ha) is reported as 30% and the “% visual injury Obs” value ([4]; CIRAR, halosulfuron 8.75 g ai/ha) is reported as 10%. For the same molecule, the “% visual injury Obs” value ([1]; POLCO, halosulfuron 8.75 g ai/ha) was 30%, the “% visual injury Obs” value ([5]; STEME, halosulfuron 17.5 g ai/ha) was 50% and the “% visual injury Obs” value ([7]; IPOHE, halosulfuron 17.5 g ai/ha) was 20%.
